Experimental data from patent US10335374B2, “Tablet composition for anti-tuberculosis antibiotics” (priority 2014, dated 2019).
In brackets after ≈: the same amount, converted by molar mass.

What was measured:
Test in all cases: microbe, parasite or virus in culture
Type in all cases: cell-based, M. tuberculosis
[1] = test system: INH-R2 (isoniazid resistant)
[2] = test system: INH-R1 (isoniazid resistant)
[3] = test system: ofloxacin-resistant strain; conditions: Mycobacterium tuberculosis
[4] = test system: isoniazid-resistant strain; conditions: Mycobacterium tuberculosis
[5] = test system: rifampin-resistant strain; conditions: Mycobacterium tuberculosis
[6] = test system: FQ-R1 (fluoroquinolone resistant); conditions: Mycobacterium tuberculosis
[7] = test system: RIF-R2 (rifampicin resistant); conditions: Mycobacterium tuberculosis
[8] = test system: RIF-R1 (rifampicin resistant); conditions: Mycobacterium tuberculosis

SMILES | MIC ([1]; Mycobacterium tuberculosis) [µM] | MIC ([1]; Resistant Isolate INH-R2, isoniazid-sucrose series) [µM] | MIC ([2]; Mycobacterium tuberculosis) [µM] | MIC ([2]; Resistant Isolate INH-R1, isoniazid-sucrose series) [µM] | MIC [3] [µM] | MIC [4] [µM] | MIC [5] [µM] | MIC [6] [µM] | MIC [7] [µM] | MIC [8] [µM]
NNC(=O)c1ccncc1 [Isoniazid (INH), isoniazid] | > 200 | >200 | > 200 | >200 |  |  |  |  |  | 
NCC[C@H](O)C(=O)N[C@@H]1C[C@H](N)[C@@H](O[C@H]2O[C@H](CN)[C@@H](O)[C@H](O)[C@H]2O)[C@H](O)[C@H]1O[C@H]1O[C@H](CO)[C@@H](O)[C@H](N)[C@H]1O [amikacin] |  |  |  |  | 0.256 (≈ 0.15 µg/mL) | 2.05 (≈ 1.2 µg/mL) | 0.256 (≈ 0.15 µg/mL) |  |  | 
CO[C@H]1/C=C/O[C@@]2(C)Oc3c(C)c(O)c4c(O)c(c(/C=N/N5CCN(C)CC5)c(O)c4c3C2=O)NC(=O)/C(C)=C\C=C\[C@H](C)[C@H](O)[C@@H](C)[C@@H](O)[C@@H](C)[C@H](OC(C)=O)[C@@H]1C [rifampicin] | 0.0075 (≈ 0.00617 µg/mL) |  | 0.02 (≈ 0.0165 µg/mL) |  |  |  |  | 0.017 (≈ 0.014 µg/mL) | > 200 | 12.4 (≈ 10.2 µg/mL)
